From patent US9828369B2, “Isoquinoline derivatives useful as inhibitors of diacylglyceride O-acyltransferase 2” (Merck Sharp & Dohme Corp., priority 2014, dated 2017)

Biological target: hDGAT2 (Homo sapiens (Human), UniProt Q96PD7)
Assay: DGAT2 enzymatic activity assay (triolein formation, LC/MS/MS)
Conditions: read-out: IC50 values for inhibition of DGAT2; membrane prep of Sf-9 cells expressing hDGAT2; 25 μM diolein, 10 μM oleoyl-CoA; room temperature; triolein by LC/MS/MS

Sequence of hDGAT2 (Q96PD7 whole entry): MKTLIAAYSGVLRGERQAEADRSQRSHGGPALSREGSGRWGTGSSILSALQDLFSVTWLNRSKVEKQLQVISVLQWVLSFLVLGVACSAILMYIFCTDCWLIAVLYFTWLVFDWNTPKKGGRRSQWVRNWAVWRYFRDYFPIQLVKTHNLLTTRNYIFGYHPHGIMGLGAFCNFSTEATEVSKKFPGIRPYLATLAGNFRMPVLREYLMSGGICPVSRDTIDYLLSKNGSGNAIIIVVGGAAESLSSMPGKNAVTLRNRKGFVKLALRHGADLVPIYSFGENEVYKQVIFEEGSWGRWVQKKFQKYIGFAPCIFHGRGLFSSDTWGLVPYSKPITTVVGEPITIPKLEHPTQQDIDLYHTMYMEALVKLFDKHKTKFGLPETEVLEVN

SMILES | IC50
COc1cccc(-c2ccc(CNC(=O)C3CC3(F)c3ccccc3)c3cnccc23)c1 (stereo not drawn) [Example 109, 2-fluoro-N-((5-(3-methoxyphenyl)isoquinolin-8-yl)methyl)-2-phenylcyclopropanecarboxamide] | 696 nM
COc1cccc(-c2ccc(CNC(=O)c3n[nH]c(=O)c4ccccc34)c3cnccc23)c1 [Example 110, N-((5-(3-methoxyphenyl)isoquinolin-8-yl)methyl)-4-oxo-3,4-dihydrophthalazine-1-carboxamide] | 544 nM
COc1cccc(-c2ccc(CNC(=O)C(C)(C)Oc3ccc(C(F)(F)F)cc3)c3cnccc23)c1 [Example 111, N-((5-(3-methoxyphenyl)isoquinolin-8-yl)methyl)-2-methyl-2-(4-(trifluoromethyl)phenoxy)propanamide] | 1230 nM
COc1cccc(-c2ccc(CNC(=O)C(C)(C)Oc3ccc(C(F)(F)F)cn3)c3cnccc23)c1 [Example 112, N-((5-(3-methoxyphenyl)isoquinolin-8-yl)methyl)-2-methyl-2-((5-(trifluoromethyl)pyridin-2-yl)oxy)propanamide] | 1160 nM
COc1cccc(-c2ccc(CNC(=O)c3cn(Cc4ccccc4)nn3)c3cnccc23)c1 [Example 113, 1-benzyl-N-((5-(3-methoxyphenyl)isoquinolin-8-yl)methyl)-1H-1,2,3-triazole-4-carboxamide] | 5890 nM
COc1cccc(-c2ccc(CNC(=O)C(C)(C)Oc3cc(C(F)(F)F)ccn3)c3cnccc23)c1 [Example 114, N-((5-(3-methoxyphenyl)isoquinolin-8-yl)methyl)-2-methyl-2-((4-(trifluoromethyl)pyridin-2-yl)oxy)propanamide] | 6110 nM
COc1cccc(-c2ccc(CNC(=O)c3cnn(Cc4ccccc4)c3)c3cnccc23)c1 [Example 115, 1-benzyl-N-((5-(3-methoxyphenyl)isoquinolin-8-yl)methyl)-1H-pyrazole-4-carboxamide] | 3390 nM
COc1cccc(-c2ccc(CNC(=O)C(F)(F)c3ccc(Br)cn3)c3cnccc23)c1 [Example 116, 2-(5-bromopyridin-2-yl)-2,2-difluoro-N-((5-(3-methoxyphenyl)isoquinolin-8-yl)methyl)acetamide] | 8130 nM
COc1cccc(-c2ccc(CNC(=O)c3cc(C)n(Cc4ccccc4)n3)c3cnccc23)c1 [Example 117, 1-benzyl-N-((5-(3-methoxyphenyl)isoquinolin-8-yl)methyl)-5-methyl-1H-pyrazole-3-carboxamide] | 942 nM
COc1cccc(-c2ccc(CNC(=O)c3cncc(C(F)(F)F)c3)c3cnccc23)c1 [Example 119, N-((5-(3-methoxyphenyl)isoquinolin-8-yl)methyl)-5-(trifluoromethyl)nicotinamide] | 5890 nM
COc1cccc(-c2ccc(CNC(=O)c3cc(Br)cnc3-c3ccccc3)c3cnccc23)c1 [Example 120, 5-bromo-N-((5-(3-methoxyphenyl)isoquinolin-8-yl)methyl)-2-phenylnicotinamide] | 4240 nM
COc1cccc(-c2ccc(CNC(=O)c3cc(Br)cnc3C(F)(F)F)c3cnccc23)c1 [Example 121, 5-bromo-N-((5-(3-methoxyphenyl)isoquinolin-8-yl)methyl)-2-(trifluoromethyl)nicotinamide] | 1180 nM
COc1cccc(-c2ccc(CNC(=O)C3(c4ccc(C(F)(F)F)cc4)CCC3)c3cnccc23)c1 [Example 123, N-((5-(3-methoxyphenyl)isoquinolin-8-yl)methyl)-1-(4-(trifluoromethyl)phenyl)cyclobutanecarboxamide] | 513 nM
COc1cccc(-c2ccc(CNC(=O)C(F)c3ccc(C(F)(F)F)cc3)c3cnccc23)c1 (stereo not drawn) [Example 124, 2-fluoro-N-((5-(3-methoxyphenyl)isoquinolin-8-yl)methyl)-2-(4-(trifluoromethyl)phenyl)acetamide] | 2330 nM
COc1cccc(-c2ccc(CNC(=O)C(c3ccc(C(F)(F)F)cc3)C(C)C)c3cnccc23)c1 (stereo not drawn) [Example 125, N-((5-(3-methoxyphenyl)isoquinolin-8-yl)methyl)-3-methyl-2-(4-(trifluoromethyl)phenyl)butanamide] | 2460 nM
COc1cccc(-c2ccc(CNC(=O)c3cnccc3C(F)(F)F)c3cnccc23)c1 [Example 127, N-((5-(3-methoxyphenyl)isoquinolin-8-yl)methyl)-4-(trifluoromethyl)nicotinamide] | 1420 nM
COc1cccc(-c2ccc(CNC(=O)C3CCN(c4ccc(C(F)(F)F)cc4)CC3)c3cnccc23)c1 [Example 128, N-((5-(3-methoxyphenyl)isoquinolin-8-yl)methyl)-1-(4-(trifluoromethyl)phenyl)piperidine-4-carboxamide] | 952 nM
COc1cccc(-c2ccc(CNC(=O)c3cncc(-c4ccccc4)c3)c3cnccc23)c1 [Example 129, N-((5-(3-methoxyphenyl)isoquinolin-8-yl)methyl)-5-phenylnicotinamide] | 2990 nM
COc1cccc(-c2ccc(CNC(=O)C34CC(C3)C4)c3cnccc23)c1 [Example 130, N-((5-(3-methoxyphenyl)isoquinolin-8-yl)methyl)bicyclo[1.1.1]pentane-1-carboxamide] | 268 nM
COc1cccc(-c2ccc(CNC(=O)c3cc(Br)cnc3F)c3cnccc23)c1 [Example 131, 5-bromo-2-fluoro-N-((5-(3-methoxyphenyl)isoquinolin-8-yl)methyl)nicotinamide] | 400 nM
COc1cccc(-c2ccc(CNC(=O)c3cnn(-c4ccccc4)c3C(F)(F)F)c3cnccc23)c1 [Example 132, N-((5-(3-methoxyphenyl)isoquinolin-8-yl)methyl)-1-phenyl-5-(trifluoromethyl)-1H-pyrazole-4-carboxamide] | 3940 nM

Now from value to compound:

IC50 | SMILES
571 nM | COc1cccc(-c2ccc(CNC(=O)c3ccnc(C(F)(F)F)c3)c3cnccc23)c1 [Example 133, N-((5-(3-methoxyphenyl)isoquinolin-8-yl)methyl)-2-(trifluoromethyl)isonicotinamide]
324 nM | COc1cccc(-c2ccc(CNC(=O)C(C)c3ccc(-c4ccccc4)cc3)c3cnccc23)c1 (stereo not drawn) [Example 134, 2-([1,1′-biphenyl]-4-yl)-N-((5-(3-methoxyphenyl)isoquinolin-8-yl)methyl)propanamide]
2000 nM | COc1cccc(-c2ccc(CNC(=O)C(C)c3cccc(F)c3)c3cnccc23)c1 (stereo not drawn) [Example 135, 2-(3-fluorophenyl)-N-((5-(3-methoxyphenyl)isoquinolin-8-yl)methyl)propanamide]
256 nM | COc1cccc(-c2ccc(CNC(=O)C(C)c3ccc(C#N)cc3)c3cnccc23)c1 (stereo not drawn) [Example 136, 2-(4-cyanophenyl)-N-((5-(3-methoxyphenyl)isoquinolin-8-yl)methyl)propanamide]
484 nM | COc1cccc(-c2ccc(CNC(=O)C(C)c3ccc(OC(F)(F)F)cc3)c3cnccc23)c1 (stereo not drawn) [Example 137, N-((5-(3-methoxyphenyl)isoquinolin-8-yl)methyl)-2-(4-(trifluoromethoxy)phenyl)propanamide]
298 nM | COc1cccc(-c2ccc(CNC(=O)C(C)c3ccccc3)c3cnccc23)c1 (stereo not drawn) [Example 138, N-((5-(3-methoxyphenyl)isoquinolin-8-yl)methyl)-2-phenylpropanamide]
213 nM | COc1cccc(-c2ccc(CNC(=O)C(C)c3ccccc3F)c3cnccc23)c1 (stereo not drawn) [Example 139, 2-(2-fluorophenyl)-N-((5-(3-methoxyphenyl)isoquinolin-8-yl)methyl)propanamide]
566 nM | COc1cccc(-c2ccc(CNC(=O)C(C)c3ccc(C(F)(F)F)cc3)c3cnccc23)c1 (stereo not drawn) [Example 141, N-((5-(3-methoxyphenyl)isoquinolin-8-yl)methyl)-2-(4-(trifluoromethyl)phenyl)propanamide]
197 nM | COc1cccc(-c2ccc(CNC(=O)C(C)c3ccc4cc(OC)ccc4c3)c3cnccc23)c1 (stereo not drawn) [Example 143, 2-(6-methoxynaphthalen-2-yl)-N-((5-(3-methoxyphenyl)isoquinolin-8-yl)methyl)propanamide]
6890 nM | COc1cccc(-c2ccc(CNC(=O)C(C)c3ccc(C4CCCCC4)c(Cl)c3)c3cnccc23)c1 (stereo not drawn) [Example 148, 2-(3-chloro-4-cyclohexylphenyl)-N-((5-(3-methoxyphenyl)isoquinolin-8-yl)methyl)propanamide]
426 nM | COc1cccc(-c2ccc(CNC(=O)Cc3ccc(C(F)(F)F)cc3)c3ncccc23)c1 [Example 150, N-((5-(3-methoxyphenyl)quinolin-8-yl)methyl)-2-(4-(trifluoromethyl)phenyl)acetamide]
938 nM | COc1cccc(-c2ccc(CNC(=O)Nc3ccc(OC(F)(F)F)cc3)c3cnccc23)c1 [Example 151, 1-((5-(3-methoxyphenyl)isoquinolin-8-yl)methyl)-3-(4-(trifluoromethoxy)phenyl)urea]
198 nM | COc1cc(OC)cc(-c2ccc(CNC(=O)Nc3cccc(Cl)c3Cl)c3cnccc23)c1 [Example 152, 1-(2,3-dichlorophenyl)-3-((5-(3,5-dimethoxyphenyl)isoquinolin-8-yl)methyl)urea]
1110 nM | COC(=O)c1ccccc1NC(=O)NCc1ccc(-c2cccc(OC)c2)c2ccncc12 [Example 153, methyl 2-(3-((5-(3-methoxyphenyl)isoquinolin-8-yl)methyl)ureido)benzoate]
3270 nM | COc1cccc(-c2ccc(CNC(=O)c3ccn(C)n3)c3cnccc23)c1 [Example 154, N-((5-(3-methoxyphenyl)isoquinolin-8-yl)methyl)-1-methyl-1H-pyrazole-3-carboxamide]
116 nM | COc1cccc(-c2ccc(CNC(=O)Nc3cccc(-c4ccccc4)c3)c3cnccc23)c1 [Example 157, 1-([1,1′-biphenyl]-3-yl)-3-((5(3-methoxyphenyl)isoquinolin-8-yl)methyl)urea]
374 nM | C=C(c1ccccc1)c1ccc(CNC(=O)Nc2cccc(Cl)c2Cl)c2cnccc12 [Example 158, 1-(2,3-dichlorophenyl)-3-((5-(1-phenylyinyl)isoquinolin-8-yl)methyl)urea]
478 nM | COCCCc1ccc(CNC(=O)Nc2cccc(Cl)c2Cl)c2cnccc12 [Example 159, 1-(2,3-dichlorophenyl)-3-((5-(3-methoxypropyl)isoquinolin-8-yl)methyl)urea]
